Reference: patent US10494360B2, “Inhibitors of indoleamine 2,3-dioxygenase” (NETHERLANDS TRANSLATIONAL RESEARCH CENTER B.V., priority 2016, dated 2019)
Values joined by “and” are separate entries in the source; they are usually repeats but may differ in a detail not shown here. Equal values may be shown once.

Molecular target: IDO1 (Homo sapiens, UniProt P14902)
Assay: Biochemical IDO1 assay (NFK GreenScreen)
Parameters: Recombinant full-length IDO1 (Seegers, N., et al.) and all other assay components were diluted in IDO1 reaction buffer; made in house
Details: for IC50: recombinant full-length IDO1 25 nM, L-tryptophan 100 μM, NFK Green detection, read-out: IC50, inhibitory potency on IDO1; for relative activity of separated isomers: less active / most active isomer of the pair, assay not given
Description: Inhibition of IDO1 activity can be measured by determining the enzymatic conversion of L-tryptophan into N-formylkynurenine (NFK) in a reaction mixture containing IDO1 and test compound. The formation of NFK can be detected directly by, for instance, high-performance liquid chromatography (HPLC) methods, or by intrinsic fluorescence.
Compounds were serially diluted in dimethylsulfoxide (DMSO) and finally in IDO1 reaction buffer, consisting of 50 mM NaH2PO4, pH7.0, supplemented with 0.05% Tween-20 (cat. No. P7949; Sigma Aldrich) and 1% glycerol. Recombinant full-length IDO1 (Seegers, N., et al.) and all other assay components were diluted in IDO1 reaction buffer. […] Subsequently, 10 μl of 0.4 mM of the substrate L-tryptophan was added, i.e., the final concentration of L-tryptophan was 100 μM. The DMSO concentration in the assay was 0.3%. […] Incubation was continued for 60 min at room temperature. Then, 10 μl of NFK Green™ (NTRC, Oss, The Netherlands) was added, the plate was sealed, and the reaction was developed for 3 hours at 37° C. To determine the production of N-formyl kynurenine (NFK), the seal was removed and fluorescence was read on an EnVision multimode reader (Perkin Elmer, Waltham, Mass., USA). IC50 were calculated using XLfit™ software (ID Business Solutions, Ltd., Surrey, U.K.).

Chain of IDO1 (P14902 whole entry, species assumed): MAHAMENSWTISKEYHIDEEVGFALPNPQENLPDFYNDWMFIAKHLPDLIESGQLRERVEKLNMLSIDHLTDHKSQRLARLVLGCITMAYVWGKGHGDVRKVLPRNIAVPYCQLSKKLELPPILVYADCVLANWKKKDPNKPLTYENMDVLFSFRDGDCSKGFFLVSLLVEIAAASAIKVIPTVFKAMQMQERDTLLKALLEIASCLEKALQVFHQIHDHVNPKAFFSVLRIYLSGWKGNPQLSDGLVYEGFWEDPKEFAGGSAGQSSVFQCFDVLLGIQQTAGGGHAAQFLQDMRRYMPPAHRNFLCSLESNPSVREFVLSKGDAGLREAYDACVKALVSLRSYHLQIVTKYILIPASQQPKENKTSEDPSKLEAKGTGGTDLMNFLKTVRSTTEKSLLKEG

Structure (SMILES)	IC50	relative activity of separated isomers
CCOC(=O)NC[C@H]1CC[C@H](C(=O)N2CC(=O)N(O)C2c2cccc(Br)c2)CC1 (relative stereo) [Example 102, (Trans)-ethyl N-[[4-[2-(3-bromophenyl)-3-hydroxy-4-oxo-imidazolidine-1-carbonyl]cyclohexyl]-methyl]carbamate]	≤ 5 µM and 1 to 5 µM	
C[C@@H]1C(=O)N(O)C(c2cccc(Br)c2)N1C(=O)c1ccccc1F (single isomer, unassigned) [Example 57]	≤ 5 µM and 1 to 5 µM	
O=C1CN(C(=O)c2ccccc2)C(c2cccc(Br)c2)N1O (single isomer, unassigned) [Example 63a, 1-benzoyl-2-(3-bromophenyl)-3-hydroxy-imidazolidin-4-one]	≤ 1 µM	
O=C1CN(C(=O)c2ccccc2)C(c2cccc(Br)c2)N1O (single isomer, unassigned) [Example 63b, 1-benzoyl-2-(3-bromophenyl)-3-hydroxy-imidazolidin-4-one]	≤ 5 µM and 1 to 5 µM	
O=C1CN(C(=O)c2ccccc2)C(c2cccc(Br)c2)N1O (single isomer, unassigned) [Example 64, 1-benzoyl-2-(3-bromophenyl)-3-hydroxy-imidazolidin-4-one]	≤ 5 µM and 1 to 5 µM	
C[C@@H](c1ccccc1)N1CC(=O)N(O)C1c1cccc(Br)c1 (single isomer, unassigned) [Example 139a]		less active isomer
C[C@@H](c1ccccc1)N1CC(=O)N(O)C1c1cccc(I)c1 (single isomer, unassigned) [Example 140b]	≤ 1 µM	most active isomer
O=C1CN(C(=O)c2c(F)cccc2F)C(c2cccc(Br)c2)N1O (single isomer, unassigned) [Example 142b, 2-(3-bromophenyl)-1-(2,6-difluorobenzoyl)-3-hydroxy-imidazolidin-4-one]	≤ 1 µM	most active isomer
O=C1CN(C(=O)c2c(F)cccc2Cl)C(c2ccc(F)c(Br)c2)N1O (single isomer, unassigned) [Example 143a, 2-(3-bromo-4-fluoro-phenyl)-1-(2-chloro-6-fluoro-benzoyl)-3-hydroxy-imidazolidin-4-one]	≤ 5 µM and 1 to 5 µM	less active isomer
O=C1CN(C(=O)c2c(F)cccc2Cl)C(c2ccc(F)c(Br)c2)N1O (single isomer, unassigned) [Example 143b, 2-(3-bromo-4-fluoro-phenyl)-1-(2-chloro-6-fluoro-benzoyl)-3-hydroxy-imidazolidin-4-one]	≤ 1 µM	most active isomer
O=C1CN(C(=O)c2c(F)cc(C#CC3CC3)cc2F)C(c2cccc(Br)c2)N1O (single isomer, unassigned) [Example 144a, 2-(3-bromophenyl)-1-[4-(2-cyclopropylethynyl)-2,6-difluoro-benzoyl]-3-hydroxy-imidazolidin-4-one]	≤ 1 µM	less active isomer
O=C1CN(C(=O)c2c(F)cc(C#CC3CC3)cc2F)C(c2cccc(Br)c2)N1O (single isomer, unassigned) [Example 144b, 2-(3-bromophenyl)-1-[4-(2-cyclopropylethynyl)-2,6-difluoro-benzoyl]-3-hydroxy-imidazolidin-4-one]	≤ 1 µM	most active isomer
O=C1CN(Cc2c(F)cccc2F)C(c2cccc(Br)c2)N1O (single isomer, unassigned) [Example 145a, 2-(3-bromophenyl)-1-[(2,6-difluorophenyl)methyl]-3-hydroxy-imidazolidin-4-one]	≤ 1 µM	less active isomer
O=C1CN(Cc2c(F)cccc2F)C(c2cccc(Br)c2)N1O (single isomer, unassigned) [Example 145b, 2-(3-bromophenyl)-1-[(2,6-difluorophenyl)methyl]-3-hydroxy-imidazolidin-4-one]	≤ 1 µM	most active isomer
O=C1CN(Cc2ccccc2F)C(c2cccc(I)c2)N1O (single isomer, unassigned) [Example 146a, 1-[(2-fluorophenyl)methyl]-3-hydroxy-2-(3-iodophenyl)imidazolidin-4-one]	≤ 1 µM	less active isomer
O=C1CN(Cc2ccccc2F)C(c2cccc(I)c2)N1O (single isomer, unassigned) [Example 146b, 1-[(2-fluorophenyl)methyl]-3-hydroxy-2-(3-iodophenyl)imidazolidin-4-one]	≤ 1 µM	most active isomer
NS(=O)(=O)NCC#Cc1cc(F)c(C(=O)N2CC(=O)N(O)C2c2cccc(Br)c2)c(F)c1 (single isomer, unassigned) [Example 147b, 2-(3-bromophenyl)-1-[2,6-difluoro-4-[3-(sulfamoylamino)prop-1-ynyl]benzoyl]-3-hydroxy-4-oxo-imidazolidine]	≤ 1 µM	most active isomer
O=C1CN(C(=O)c2ccccc2)C(c2cccc(C(F)(F)F)c2)N1O (stereo not drawn) [Example 1, 1-Benzoyl-3-hydroxy-2-[3-(trifluoromethyl)phenyl]imidazolidin-4-one]	≤ 5 µM and 1 to 5 µM	
O=C1CN(C(=O)c2ccccc2F)C(c2ccc(Cl)c(C(F)(F)F)c2)N1O (stereo not drawn) [Example 8, 2-[4-Chloro-3-(trifluoromethyl)phenyl]-1-(2-fluorobenzoyl)-3-hydroxy-imidazolidin-4-one]	≤ 5 µM and 1 to 5 µM	
O=C1CN(C(=O)c2c(F)cccc2Cl)C(c2cccc(Cl)c2)N1O (stereo not drawn) [Example 14, 1-(2-Chloro-6-fluoro-benzoyl)-2-(3-chlorophenyl)-3-hydroxy-imidazolidin-4-one]	≤ 5 µM and 1 to 5 µM	
O=C1CN(C(=O)c2ccc(Cl)cc2Cl)C(c2cccc(Br)c2)N1O (stereo not drawn) [Example 16, 2-(3-Bromophenyl)-1-(2,4-dichlorobenzoyl)-3-hydroxy-imidazolidin-4-one]	≤ 5 µM and 1 to 5 µM	
COc1ccc(C(=O)N2CC(=O)N(O)C2c2cccc(Br)c2)cc1 (stereo not drawn) [Example 18, 2-(3-Bromophenyl)-3-hydroxy-1-(4-methoxybenzoyl)imidazolidin-4-one]	≤ 5 µM and 1 to 5 µM	
Cc1ccccc1C(=O)N1CC(=O)N(O)C1c1cccc(Br)c1 (stereo not drawn) [Example 20, 2-(3-Bromophenyl)-3-hydroxy-1-(2-methylbenzoyl)imidazolidin-4-one]	≤ 5 µM and 1 to 5 µM	
O=C1CN(C(=O)C2CCC2)C(c2ccc(F)c(Br)c2)N1O (stereo not drawn) [Example 23, 2-(3-Bromo-4-fluoro-phenyl)-1-(cyclobutanecarbonyl)-3-hydroxy-imidazolidin-4-one]	≤ 5 µM and 1 to 5 µM	
O=C1CN(C(=O)c2ccccc2Br)C(c2cccc(Br)c2)N1O (stereo not drawn) [Example 24, 1-(2-Bromobenzoyl)-2-(3-bromophenyl)-3-hydroxy-imidazolidin-4-one]	≤ 5 µM and 1 to 5 µM	
O=C1CN(C(=O)c2ccccc2C(F)(F)F)C(c2cccc(Br)c2)N1O (stereo not drawn) [Example 28, 2-(3-Bromophenyl)-3-hydroxy-1-[2-(trifluoromethyl)benzoyl]imidazolidin-4-one]	≤ 5 µM and 1 to 5 µM	
O=C1CN(C(=O)c2ccc(F)cc2)C(c2cccc(Br)c2)N1O (stereo not drawn) [Example 29, 2-(3-Bromophenyl)-1-(4-fluorobenzoyl)-3-hydroxy-imidazolidin-4-one]	≤ 5 µM and 1 to 5 µM	
O=C1CN(C(=O)c2ccc(F)cc2Cl)C(c2cccc(Br)c2)N1O (stereo not drawn) [Example 30, 2-(3-Bromophenyl)-1-(2-chloro-4-fluoro-benzoyl)-3-hydroxy-imidazolidin-4-one]	≤ 5 µM and 1 to 5 µM	
